Data set [1] relates to PC-3 cells. In words: Fluorometric calcium release assay (FLIPR Calcium 6). The data set is classed as cell-based, human. Here is the method: Calcium release assays were performed using a FLIPR Calcium 6 assay kit (Molecular Devices) according to published procedures (26). Briefly, 5×10^4 PC-3 cells were seeded overnight in 96-well clear bottom black plates. The growth medium was replaced with loading buffer containing a calcium-sensitive dye and incubated for 30 min at 37° C. The plate was placed in a FlexStation 3 microplate reader (Molecular Devices) and baseline fluorescent signals were acquired for 15 sec. […] The relative fluorescence unit (RFU=Max-Min) was used to determine the agonistic/antagonistic properties.

Data set [2] has as its target T1, human GRPR (Homo sapiens, UniProt P30550).
T1 construct: endogenous in cells; host or cells: PC-3 human prostate adenocarcinoma cells (whole cells)
Briefly: Competition binding assay, displacement of [^125I-Tyr^4]Bombesin on PC-3 cells. How it is done: Cells were incubated 30-60 min at 37° C.

The test system of data set [3] is PC-3 xenograft bearing mice. The conditions noted are these: PET/CT, PC-3 tumor-bearing mice. How it is done:
Animal experiments were approved by the Animal Ethics Committee of the University of British Columbia. Male NOD.Cg-Rag1^tm1Mom∥2rg^tm1Wjl/SzJ (NRG) mice obtained from an in-house colony were subcutaneously inoculated with 5×10^6 PC-3 cells (100 μL; 1:1 PBS/Matrigel), and tumors were grown for 2 to 3 weeks.
Mice were sedated and scanned (Siemens Inveon microPET/CT) with body temperature maintained by heating pad. […] PET data were acquired in list mode, reconstructed using 3-dimensional ordered-subsets expectation maximization (2 iterations) followed by a fast maximum a priori algorithm (18 iterations) with CT-based attenuation correction. Images were analyzed using the Inveon Research Workplace software (Siemens Healthineers).

Data set [4] deals with nude mice bearing PC-3 tumors. The conditions noted are these: Dalm et al.; cited from earlier work.
The test system of data set [5] is PC-3 xenograft bearing mice. Briefly: Biodistribution in PC-3 tumor-bearing NRG mice (Example 1). The data set is classed as in vivo. Here is the method:
The mice were sacrificed by CO2 inhalation at 30 min, 1 h, and 2 h p.i. Blood was collected by cardiac puncture. Organs/tissues were harvested, rinsed with PBS, blotted dry, and weighed. The activity in tissues was assayed by gamma counter and expressed as the percentage injected dose per gram of tissue (% ID/g).

For data set [6], the target named is T2, GRPR (Mus musculus, UniProt P21729).
T2 construct: the latter value was determined using Swiss 3T3 cells (17); host or cells: Swiss 3T3 cells
T2 sequence (P21729 whole entry): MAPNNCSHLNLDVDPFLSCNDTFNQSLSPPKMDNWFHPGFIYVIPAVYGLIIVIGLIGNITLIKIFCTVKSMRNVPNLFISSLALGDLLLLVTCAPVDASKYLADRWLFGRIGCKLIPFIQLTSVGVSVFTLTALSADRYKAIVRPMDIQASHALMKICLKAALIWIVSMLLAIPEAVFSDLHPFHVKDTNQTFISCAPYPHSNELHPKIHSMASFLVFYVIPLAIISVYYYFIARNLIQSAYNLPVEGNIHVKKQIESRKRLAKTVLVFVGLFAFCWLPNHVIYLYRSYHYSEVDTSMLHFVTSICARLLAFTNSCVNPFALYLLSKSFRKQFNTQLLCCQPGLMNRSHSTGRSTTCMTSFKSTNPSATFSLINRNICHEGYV
The conditions noted are these: determined using Swiss 3T3 cells; read-out: Reported Ki value; cited from earlier work.

What is called Ki is the dissociation constant of the complex between target and ligand, obtained from inhibition or displacement.

Where “and” joins values, the source holds several entries; their conditions need not be identical. Equal values may be shown once.

T1 sequence (P30550 whole entry): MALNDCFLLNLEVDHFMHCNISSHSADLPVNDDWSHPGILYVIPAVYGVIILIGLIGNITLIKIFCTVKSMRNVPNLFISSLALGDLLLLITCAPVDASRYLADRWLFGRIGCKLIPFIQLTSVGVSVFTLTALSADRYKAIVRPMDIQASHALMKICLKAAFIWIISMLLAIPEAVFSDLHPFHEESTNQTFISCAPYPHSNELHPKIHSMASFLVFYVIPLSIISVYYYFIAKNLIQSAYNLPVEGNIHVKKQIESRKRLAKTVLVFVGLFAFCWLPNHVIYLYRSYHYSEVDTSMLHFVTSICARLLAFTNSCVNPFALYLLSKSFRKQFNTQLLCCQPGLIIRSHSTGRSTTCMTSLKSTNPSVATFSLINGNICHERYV

`Nc1ncnc2c1ncn2[C@@H]1O[C@H](COP(=O)(O)OP(=O)(O)OP(=O)(O)O)[C@@H](O)[C@H]1O` [ATP, adenosine triphosphate, reference compound]: in data set [1] (50 nM), the Intracellular calcium release stood at 511±45.5 RFUs.
As to `CC(C)CC(CC(C)C)NC(=O)[C@H](Cc1c[nH]cn1)NC(=O)CNC(=O)[C@@H](NC(=O)[C@H](C)NC(=O)[C@H](Cc1c[nH]c2ccccc12)NC(=O)[C@H](CCC(N)=O)NC(=O)[C@@H](Cc1ccccc1)NC(=O)COCC(=O)Nc1ccc(CNC(=O)CN2CCN(CC(=O)O)CCN(CC(=O)O)CCN(CC(=O)O)CC2)cc1)C(C)C` [Ga-NeoBOMB1, reference compound], the affinity in data set [2], expressed as Ki, was 1710 ± 280 pM.
For the molecule `CC(C)CC(CC(C)C)NC(=O)[C@H](Cc1cnc[nH]1)NC(=O)CNC(=O)[C@@H](NC(=O)[C@H](C)NC(=O)[C@H](Cc1c[nH]c2ccccc12)NC(=O)[C@H](CCC(N)=O)NC(=O)[C@@H](Cc1ccccc1)NC(=O)COCC(=O)Nc1ccc(CNC(=O)CN2CCN(CC(=O)O)CCN(CC(=O)O)CCN(CC(=O)O)CC2)cc1)C(C)C` [^68Ga-NeoBOMB1, metal not drawn, reference compound], the “Excretion / clearance pathway” value in data set [3] was “both the hepatobiliary and renal pathways”. In addition, in data set [4], the Uptake in pancreas was about 15 % ID/g and the Uptake in tumor is on record as about 10 % ID/g. Also, in data set [5] (30 min p.i.), the “Biodistribution PC-3 Tumor, Mean” value was 9.60±0.99 % ID/g and the “Biodistribution Pancreas, Mean” value was found to be 95.7±12.7 % ID/g. In data set [5] (60 min p.i.), the “Biodistribution PC-3 Tumor, Mean” value turned out to be 9.83±1.48 % ID/g; the “Biodistribution Pancreas, Mean” value was 122±28.4 % ID/g and 123±28.4 % ID/g. In data set [5] (120 min p.i.), the “Biodistribution Blood, Mean” value stood at 0.45±0.10 % ID/g; the “Biodistribution PC-3 Tumor, Mean” value is 12.1±3.72 % ID/g; the “Biodistribution Pancreas, Mean” value is 139±26.8 % ID/g.
On to “D-Phe-Gln-Trp-Ala-Val-Gly-His-Leu-L-Tac-NH2 [RC-3950-II]”, for which the inhibitory constant (Ki) in data set [6] is 78 pM.
For the molecule “[D-Phe^6, Leu-NHEt^13, des-Met^14]Bombesin(6-14) [reference compound]”, the Intracellular calcium release in data set [1] (5 nM) turned out to be 22.3±16.8 RFUs; in data set [1] (50 nM), 42.0±20.4 RFUs.

The record behind these values is patent US20210402016A1, “RADIOLABELED BOMBESIN-DERIVED COMPOUNDS FOR IN VIVO IMAGING OF GASTRIN-RELEASING PEPTIDE RECEPTOR (GRPR) AND TREATMENT OF GRPR-RELATED DISORDERS” (Provincial Health Services Authority, priority 2018, published 2021).
